Laboratory results as given in PMC9652372, “Glycolytic flux control by drugging phosphoglycolate phosphatase” (Nature Communications, 2022).
Where “and” joins values, the source holds several entries; their conditions need not be identical. Identical values can stand only once.

Tests used:
murine PGP [1] = biological target: T1, murine PGP (Mus musculus, UniProt Q8CHP8); assay: biochemical
T1 sequence (Q8CHP8 1-321): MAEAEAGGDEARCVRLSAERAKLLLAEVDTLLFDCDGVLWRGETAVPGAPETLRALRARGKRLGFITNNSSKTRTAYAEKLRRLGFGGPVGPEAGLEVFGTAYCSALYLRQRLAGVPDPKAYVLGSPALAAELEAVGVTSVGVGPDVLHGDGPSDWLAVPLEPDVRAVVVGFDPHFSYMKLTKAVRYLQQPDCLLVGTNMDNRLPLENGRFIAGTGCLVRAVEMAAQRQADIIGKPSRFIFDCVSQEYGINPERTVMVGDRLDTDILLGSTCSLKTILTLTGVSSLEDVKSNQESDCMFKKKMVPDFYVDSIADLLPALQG

murine PGP [2] = biological target: T1, murine PGP; assay: IC50 determination, murine PGP, pNPP dephosphorylation
murine PDXP = biological target: T2, murine PDXP (Mus musculus, UniProt P60487); assay: PDXP activity towards pyridoxal 5'-phosphate (PLP); settings: phosphatase PDXP; species M.m.; substrate PLP; n.s. = no significant inhibition detectable
T2 sequence (P60487 1-292): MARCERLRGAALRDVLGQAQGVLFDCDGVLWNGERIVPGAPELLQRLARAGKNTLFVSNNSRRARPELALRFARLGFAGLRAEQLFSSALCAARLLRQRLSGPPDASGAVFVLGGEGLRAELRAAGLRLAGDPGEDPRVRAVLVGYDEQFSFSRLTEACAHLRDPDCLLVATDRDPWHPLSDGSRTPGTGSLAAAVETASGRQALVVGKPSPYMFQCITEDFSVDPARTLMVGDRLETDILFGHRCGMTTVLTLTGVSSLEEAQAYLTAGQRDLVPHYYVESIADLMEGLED

murine PGP [3] = biological target: T1, murine PGP; assay: SAR: CP1, CP2 and analogs on PGP phosphatase activity (PG); type: biochemical; design: His6 (N, cleaved yes); made in house; host or cells: Escherichia coli BL21 (DE3), pETM11, co-expressed with groES-groEL-tig
Procedure: However, the DMSO concentration was kept constant across each assay. For SAR experiments, all compound stocks were prepared at 10 mM in 100% DMSO. A constant final DMSO concentration of 0.4% was maintained under all conditions, and solvent control samples contained 0.4% DMSO without compounds.
PGP phosphatase activity were assessed using recombinant, purified murine PGP and PG as a

murine PDXP/PGP hybrid = biological target: T3, murine PDXP/PGP hybrid (Mus musculus, UniProt P60487+Q8CHP8); assay: PG dephosphorylation by PDXP/PGP hybrid protein; type: biochemical
T3 construct: consisting of the PGP cap domain (amino acids 114–233) fused to the PDXP core domain; His6 (N, cleaved yes); made in house; host or cells: Escherichia coli BL21 (DE3), pETM11
T3 sequence (P60487 1-100): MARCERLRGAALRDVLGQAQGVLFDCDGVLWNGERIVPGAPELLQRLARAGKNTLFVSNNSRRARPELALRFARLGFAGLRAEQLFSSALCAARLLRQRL
T3 sequence (Q8CHP8 114-233): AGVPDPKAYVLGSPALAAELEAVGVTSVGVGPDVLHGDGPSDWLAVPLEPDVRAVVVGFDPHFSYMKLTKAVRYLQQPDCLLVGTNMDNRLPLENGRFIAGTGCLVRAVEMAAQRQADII
T3 sequence (P60487 208-292): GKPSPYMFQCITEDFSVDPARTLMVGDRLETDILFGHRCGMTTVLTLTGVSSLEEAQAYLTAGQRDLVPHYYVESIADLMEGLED
Procedure: After centrifugation, cells were resuspended in TNM-2 (100 mM triethanolamine, 500 mM NaCl, 20 mM imidazole, 5 mM MgCl2; pH 7.4). Cleared supernatants were loaded on a HisTrap HP nickel sepharose column in TNM-3 (50 mM triethanolamine, 500 mM NaCl, 20 mM imidazole, 5 mM MgCl2; pH 7.4), and His6-tagged proteins were eluted using a linear gradient of up to 50% TNM-4 (50 mM triethanolamine; 250 mM NaCl; 500 mM imidazole; 5 mM MgCl2; pH 7.4). Peak fractions were pooled, the His6-tag was cleaved, and untagged PDXP or PDXP/PGP was isolated, concentrated and further purified by size exclusion chromatography in TNM-5 (50 mM triethanolamine; 250 mM NaCl; 5 mM MgCl2; pH 7.4). […] Data were analyzed with GraphPad Prism 7.04.

PGP = biological target: T4, PGP (Mus musculus, UniProt Q8CHP8); assay: Steady state kinetics of PG dephosphorylation in presence of CP1-3; settings: for PGP activity: 0,5 µM CP1
T4 sequence (Q8CHP8 1-321): T1 sequence (Q8CHP8 1-321)

SMILES: O=C(Nc1ccccc1C(=O)O)c1ccc(Oc2ccc(C(=O)Nc3ccccc3C(=O)O)cc2)cc1 [CP1]
- IC50 (murine PGP [1]): 370 nM and 400 nM
- IC50 (murine PGP [2]): 770 ± 50 nM
- remaining activity at 25 µM (murine PGP [2]; read-out: M.m PGP on pNPP, activity, control = 100.00, CP log[M] -4.60206): 3.52%
- remaining activity at 10 µM (murine PGP [2]; read-out: M.m PGP on pNPP, activity, control = 100.00, CP log[M] -5): 6.83%
- remaining activity at […] (murine PGP [2]; read-out: M.m PGP on pNPP, activity, control = 100.00, CP log[M] -5.60206): 23.4%
- remaining activity at 1 µM (murine PGP [2]; read-out: M.m PGP on pNPP, activity, control = 100.00, CP log[M] -6): 47.8%
- remaining activity at 0.5 µM (murine PGP [2]; read-out: M.m PGP on pNPP, activity, control = 100.00, CP log[M] -6.30103): 65%
- remaining activity at […] (murine PGP [2]; read-out: M.m PGP on pNPP, activity, control = 100.00, CP log[M] -6.60206): 85%
- remaining activity at 0.125 µM (murine PGP [2]; read-out: M.m PGP on pNPP, activity, control = 100.00, CP log[M] -6.90309): 91.3%
- remaining activity at 0.0625 µM (murine PGP [2]; read-out: M.m PGP on pNPP, activity, control = 100.00, CP log[M] -7.20412): 99.4%
- remaining activity at 0.03125 µM (murine PGP [2]; read-out: M.m PGP on pNPP, activity, control = 100.00, CP log[M] -7.50515): 100%
- IC50 (murine PDXP): n.s.
- inhibition of mPGP activity at 40 µM CP compared to DMSO control (%) (murine PGP [3]; 40 µM CP, single experiments Exp #1-3): 92.9348% and 99.7175% and 99.6139%
- remaining activity at 8 µM (murine PGP [3]; CP log[M] -5.09691, read-out: mPGP activity in presence of CP relative to DMSO controls, mPGP on PG (norm.)): 1.61%
- remaining activity at 2 µM (murine PGP [3]; CP log[M] -5.69897, read-out: mPGP activity in presence of CP relative to DMSO controls, mPGP on PG (norm.)): 11.3%
- remaining activity at 1 µM (murine PGP [3]; CP log[M] -6, read-out: mPGP activity in presence of CP relative to DMSO controls, mPGP on PG (norm.)): 24.7%
- remaining activity at 0.5 µM (murine PGP [3]; CP log[M] -6.30103, read-out: mPGP activity in presence of CP relative to DMSO controls, mPGP on PG (norm.)): 35.5%
- remaining activity at […] (murine PGP [3]; CP log[M] -6.60206, read-out: mPGP activity in presence of CP relative to DMSO controls, mPGP on PG (norm.)): 66.1%
- remaining activity at 0.125 µM (murine PGP [3]; CP log[M] -6.90309, read-out: mPGP activity in presence of CP relative to DMSO controls, mPGP on PG (norm.)): 76.3%
- remaining activity at 0.0625 µM (murine PGP [3]; CP log[M] -7.20412, read-out: mPGP activity in presence of CP relative to DMSO controls, mPGP on PG (norm.)): 88.7%
- remaining activity at 0.03125 µM (murine PGP [3]; CP log[M] -7.50515, read-out: mPGP activity in presence of CP relative to DMSO controls, mPGP on PG (norm.)): 93%
- remaining activity at 0.0078125 µM (murine PGP [3]; CP log[M] -8.10721, read-out: mPGP activity in presence of CP relative to DMSO controls, mPGP on PG (norm.)): 101%
- remaining activity at 16 µM (murine PDXP/PGP hybrid; activity, control = 100, CP log[M] -4.79588): 22%
- remaining activity at 4 µM (murine PDXP/PGP hybrid; activity, control = 100, CP log[M] -5.39794): 59.9%
- remaining activity at 2 µM (murine PDXP/PGP hybrid; activity, control = 100, CP log[M] -5.69897): 72%
- remaining activity at 1 µM (murine PDXP/PGP hybrid; activity, control = 100, CP log[M] -6): 77.3%
- remaining activity at 0.5 µM (murine PDXP/PGP hybrid; activity, control = 100, CP log[M] -6.30103): 82.6%
- remaining activity at […] (murine PDXP/PGP hybrid; activity, control = 100, CP log[M] -6.60206): 92.4%
- remaining activity at 0.125 µM (murine PDXP/PGP hybrid; activity, control = 100, CP log[M] -6.90309): 90.9%
- remaining activity at 0.0625 µM (murine PDXP/PGP hybrid; activity, control = 100, CP log[M] -7.20412): 93.9%
- remaining activity at 0.015625 µM (murine PDXP/PGP hybrid; activity, control = 100, CP log[M] -7.80618): 101%
- IC50 (murine PDXP/PGP hybrid; phosphatase PDXP/PGP, species M.m., substrate PG): 13800 ± 1430 nM
- mode of PGP inhibition (PGP): mixed mode of inhibition
- PGP activity (PGP; PG 50 µM): 1.261 µmol Pi/min/mg and 1.442 µmol Pi/min/mg
- PGP activity (PGP; PG 100 µM): 3.424 µmol Pi/min/mg and 4.325 µmol Pi/min/mg and 3.784 µmol Pi/min/mg
- PGP activity (PGP; PG 200 µM): 7.208 µmol Pi/min/mg and 7.809 µmol Pi/min/mg and 7.689 µmol Pi/min/mg
- PGP activity (PGP; PG 300 µM): 11.5358 µmol Pi/min/mg and 12.2568 µmol Pi/min/mg and 11.716 µmol Pi/min/mg
- PGP activity (PGP; PG 400 µM): 14.0592 µmol Pi/min/mg and 13.5185 µmol Pi/min/mg
- PGP activity (PGP; PG 500 µM): 16.5827 µmol Pi/min/mg and 16.763 µmol Pi/min/mg and 16.2222 µmol Pi/min/mg
